Results as given in patent US7098343B2, “Compound” (Sterix, Limited, priority 2001, dated 2006).

Legend:
steroid sulphatase [1] = molecular target: T1, steroid sulphatase (Homo sapiens, UniProt P08842); assay: Inhibition of steroid sulphatase activity in placental microsomes (Protocol 2); format: biochemical; design: host or cells: JEG3 choriocarcinoma cells (intact monolayers); conditions: read-out: SULPHATASE % inhibition at 10 μM in placental microsomes
T1 sequence (P08842 22-583): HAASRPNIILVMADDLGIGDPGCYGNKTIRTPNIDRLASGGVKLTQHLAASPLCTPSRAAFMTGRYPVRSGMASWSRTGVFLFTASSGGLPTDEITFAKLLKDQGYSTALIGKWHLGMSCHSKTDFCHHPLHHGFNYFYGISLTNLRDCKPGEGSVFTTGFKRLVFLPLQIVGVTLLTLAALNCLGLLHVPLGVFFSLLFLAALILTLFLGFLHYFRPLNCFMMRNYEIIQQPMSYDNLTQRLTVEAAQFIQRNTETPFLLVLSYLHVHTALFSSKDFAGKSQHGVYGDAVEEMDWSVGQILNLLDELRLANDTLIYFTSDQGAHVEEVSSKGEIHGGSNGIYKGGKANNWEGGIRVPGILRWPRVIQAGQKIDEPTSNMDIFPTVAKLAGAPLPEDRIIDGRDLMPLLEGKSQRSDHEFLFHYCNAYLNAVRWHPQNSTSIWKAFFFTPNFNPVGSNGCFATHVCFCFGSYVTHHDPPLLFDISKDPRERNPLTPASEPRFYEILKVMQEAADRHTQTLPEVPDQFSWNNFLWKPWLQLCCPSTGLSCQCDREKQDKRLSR
Method: Inhibition of Steroid Sulphatase Activity in Placental Microsomes
Sulphatase-positive human placenta from normal term pregnancies are thoroughly minced with scissors and washed once with cold phosphate buffer (pH 7.4, 50 mM) then re-suspended in cold phosphate buffer (5 ml/g tissue). Homogenisation is accomplished with an Ultra-Turrax homogeniser, using three 10 second bursts separated by 2 minute cooling periods in ice. Nuclei and cell debris are removed by centrifuging (4° C.) at 2000 g for 30 minutes and portions (2 ml) of the supernatant are stored at […] The protein concentration of the supernatants is determined by the method of Bradford (Anal. Biochem., 72, 248-254 (1976)).
Incubations (1 ml) are carried out using a protein concentration of […], substrate concentration of […] [6,7-3H]oestrone-3-sulphate (specific activity 60 Ci/mmol from New England Nuclear, Boston, Mass., U.S.A.) and an incubation time of 20 minutes at 37° C. […] A portion (2 ml) of the organic phase was removed, evaporated and the 3H and 14C content of the residue determined by scintillation spectrometry. The mass of oestrone-3-sulphate hydrolysed is calculated from the 3H counts obtained (corrected for the volumes of the medium and organic phase used, and for recovery of [14C]oestrone added) and the specific activity of the substrate.

steroid sulphatase [2] = molecular target: T1, steroid sulphatase; conditions: cited from earlier work
uterus = conditions: cited from earlier work
aromatase = molecular target: T2, aromatase (Homo sapiens, UniProt P11511); assay: Aromatase activity in JEG3 choriocarcinoma cells (Protocol 6); format: cell-based
T2 construct: Aromatase activity is measured in JEG3 choriocarcinoma cells, obtained from the ATCC; host or cells: JEG3 choriocarcinoma cells (intact monolayers)
T2 sequence (P11511 1-503): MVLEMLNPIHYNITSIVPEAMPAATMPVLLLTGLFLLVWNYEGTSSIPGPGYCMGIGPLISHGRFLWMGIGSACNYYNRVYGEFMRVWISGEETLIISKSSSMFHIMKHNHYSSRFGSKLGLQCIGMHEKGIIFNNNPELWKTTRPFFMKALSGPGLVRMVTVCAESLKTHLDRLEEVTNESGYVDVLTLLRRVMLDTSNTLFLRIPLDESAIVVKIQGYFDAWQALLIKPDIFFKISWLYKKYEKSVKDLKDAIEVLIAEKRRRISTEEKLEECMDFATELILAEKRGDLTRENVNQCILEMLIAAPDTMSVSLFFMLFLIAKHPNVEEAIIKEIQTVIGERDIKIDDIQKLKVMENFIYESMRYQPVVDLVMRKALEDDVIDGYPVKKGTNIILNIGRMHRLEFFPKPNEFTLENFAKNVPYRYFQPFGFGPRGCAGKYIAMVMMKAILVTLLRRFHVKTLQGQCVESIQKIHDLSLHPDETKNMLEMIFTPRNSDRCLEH

E1-STS = molecular target: T3, E1-STS (Homo sapiens, UniProt P08842); conditions: 0.1 nM; cited from earlier work
T3 construct: host or cells: intact MCF-7 cells (endogenous enzyme)
T3 sequence (P08842 22-583): T1 sequence (P08842 22-583)

rat liver DHA-STS = molecular target: T4, rat liver DHA-STS (Rattus norvegicus, UniProt P15589); conditions: administered orally or subcutaneously; cited from earlier work
T4 construct: host or cells: rat liver after oral or subcutaneous dosing
T4 sequence (P15589 20-577): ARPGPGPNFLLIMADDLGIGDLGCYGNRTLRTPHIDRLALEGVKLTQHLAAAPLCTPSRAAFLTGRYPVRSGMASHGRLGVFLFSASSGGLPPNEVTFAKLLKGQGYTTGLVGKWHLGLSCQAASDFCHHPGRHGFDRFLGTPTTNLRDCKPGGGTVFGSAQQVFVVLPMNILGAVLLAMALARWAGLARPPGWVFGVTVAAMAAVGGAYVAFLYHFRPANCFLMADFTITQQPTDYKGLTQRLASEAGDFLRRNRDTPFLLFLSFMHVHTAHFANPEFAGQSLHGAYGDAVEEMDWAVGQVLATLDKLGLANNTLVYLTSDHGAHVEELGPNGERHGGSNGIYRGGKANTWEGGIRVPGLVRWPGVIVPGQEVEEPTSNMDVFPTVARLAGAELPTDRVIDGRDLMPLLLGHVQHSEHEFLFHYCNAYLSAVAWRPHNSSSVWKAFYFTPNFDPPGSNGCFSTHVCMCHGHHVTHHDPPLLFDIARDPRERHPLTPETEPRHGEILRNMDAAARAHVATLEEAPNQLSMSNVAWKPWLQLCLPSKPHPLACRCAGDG

rat liver E1-STS = molecular target: T5, rat liver E1-STS (Rattus norvegicus, UniProt P15589); conditions: administered orally or subcutaneously; cited from earlier work
T5 construct: host or cells: rat liver after oral or subcutaneous dosing
T5 sequence (P15589 20-577): T4 sequence (P15589 20-577)

Compound: NS(=O)(=O)Oc1ccc(Cn2cncn2)cc1 [STX270, Sulfamic Acid 4-[1,2,4]triazol-1-ylmethylphenyl ester]
- inhibition at 10 µM (steroid sulphatase [1]): 14%

Compound: COc1cc2c(cc1OS(N)(=O)=O)CC[C@@H]1[C@@H]2CC[C@]2(C)C(=O)CC[C@@H]12 [2-methoxyoestrone-3-O-sulphamate]
- steroid sulphatase inhibition relative to EMATE, in words (steroid sulphatase [2]): equipotent with EMATE
- oestrogenicity, in words (uterus; rat, in vivo): devoid of oestrogenicity

Compound: N#Cc1ccc(N(Cc2ccc(O)cc2)n2cnnc2)cc1 [STX265, 4-[(4-Hydroxylbenzyl)-[1,2,4]triazol-4-ylamino]benzonitrile]
- melting point: 228 to 230 °C

Compound: oestrone-3-N-sulphamate
- steroid sulphatase inhibition relative to EMATE, in words (steroid sulphatase [2]): weaker non-time-dependent inactivators

Compound: NS(=O)(=O)Oc1ccc(-c2cc(=O)c3cc(OS(N)(=O)=O)ccc3o2)cc1 [Compound H342F1]
- AROMATASE inhibition, in words (aromatase): (No inhibition seen)

Compound: oestrone-3-S-sulphamate
- steroid sulphatase inhibition relative to EMATE, in words (steroid sulphatase [2]): weaker non-time-dependent inactivators

Compound: CC12CCC3c4ccc(OS(N)(=O)=O)cc4CCC3C1CCC2=O (centres unmarked) [EMATE, oestrone-3-O-sulphamate]
- inhibition of E1-STS activity in intact MCF-7 cells (E1-STS): more than 99%
- oral uterotrophic activity relative to estradiol (uterus; rats, oral): 100 times
- inhibition of rat liver DHA-STS activity (rat liver DHA-STS): 99%
- inhibition of rat liver E1-STS activity (rat liver E1-STS): 99%
